Assay results reported in patent publication US20130095122A1, “Peptides or Antibodies Which Bind to Melanoma Inhibitory Activity (MIA) Protein” (priority 2010, published 2013).

Key:
[1] = system: murine B16 melanoma cells; assay: In vivo metastasis assay, wt B16 cells injected into spleen, i.v. AR71 treatment; design: species or system mice; details: i.v. 50 μg every 24 h
Method: Additionally, 1×10^5 wt mouse melanoma B16 cells suspended in a solution containing AR71 (1 mg/mL) and 0.9% NaCl, or NaCl alone for the control mice, respectively, were injected into the spleen of each animal (n=8 for treated mice, as well as for control without AR71). Peptide AR71 was injected i.v. (50 μg every 24 h). After nine days, the mice were sacrificed and the livers were excised. Following formalin fixation, tissues were embedded in paraffin. Afterwards, sections were prepared and stained using hematoxylin and eosin before being subjected to histological analysis.
Therefore, wild type murine B16 melanoma cells were injected into the spleen of C57B16 mice with the mice being subsequently treated with i.v. injections of AR71 (50 μg every 24 h). After nine days, the mice were sacrificed, the livers were resected and again tissue sections were prepared. […] Four representative histological liver sections (hematoxylin and eosin stained) of untreated and treated mice, respectively, are shown in FIG. 4E.

Mel Im melanoma cells = assay: Boyden chamber invasion assay (MIA activity); type: cell-based, human
Method: Invasion assays were performed in Boyden Chambers containing polycarbonate filters with 8-μm pore size (Neuro Probe, Gaithersburg, Md., USA) essentially as described previously.^13 Filters were coated with matrigel, a commercially available reconstituted basement membrane (diluted 1:3 in H2O; BD Bioscience, Bradford, Mass., USA). The lower compartment was filled with fibroblast-conditioned medium used as a chemo attractant. Mel Im melanoma cells were harvested by trypsinization for 2 min at RT, resuspended in DMEM without FCS at a density 2.5×10^4 cells/mL, and placed in the upper compartment of the chamber. Except for the control experiment with untreated cells and experiments where cells were only treated with the respective peptide, MIA was added to the cell suspension at a final concentration of 200 ng/mL. Peptide AR71 (sequence: Ac-FHWRYPLPLPGQ-NH2) was used at a final concentration of 1 μM. MIA expressing murine B16 melanoma cells stably co-transfected with Sig-AR71-HisTag containing pCMX-PL1 vector^27 and an antibiotic resistance comprising plasmid (pCDNA3), and the respective mock control were also investigated for their ability to migrate. Therefore, cells were harvested by trypsinization for 2 min at RT, resuspended in DMEM without FCS at a density 2.5×10^4 cells/mL, and placed in the upper compartment of the chamber. After incubation at 37° C. for 4 h filters were removed. Cells adhering to the lower surface of the filter were fixed, stained, and counted. Experiments were carried out in triplicates and repeated at least three times.

MIA = molecular target: T1, MIA (Homo sapiens, UniProt Q16674); assay: NMR titration of 15N-labeled MIA with peptide; type: binding; details: unlabeled peptide, increasing amounts
T1 sequence (Q16674 25-131): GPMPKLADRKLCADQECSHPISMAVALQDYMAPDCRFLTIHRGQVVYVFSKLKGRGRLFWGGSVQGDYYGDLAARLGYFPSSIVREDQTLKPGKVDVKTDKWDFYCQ
Method: All spectra were recorded at 300 K and pH 7 on a Bruker DRX600 spectrometer equipped with a pulsed field gradient triple resonance probe. Water suppression in experiments recorded on samples in H2O was achieved by incorporation of a Watergate sequence into the various pulse sequences.^28-30 2D ^1H-^15N HSQC spectra with reduced signal loss due to fast exchanging protons were recorded using procedures described previously.^31 All spectra were processed with NMRPipe and analyzed with NMRView.^32-33 Data handling was performed with NMRView. Structure visualisation and superimpositions were done with PyMol (Delano, W. L., The PyMol Molecular Graphics System (2002) Delano Scientific, Palo Alto, Calif., USA).
The NMR titration of MIA with AR71 consisted of monitoring changes in chemical shifts and line widths of the backbone amide resonances of uniformly ^15N-enriched MIA samples as a function of ligand concentration.^34-37

MIA protein dimer = molecular target: T2, MIA protein dimer (Homo sapiens, UniProt Q16674); assay: Western blot analysis of MIA dimer bands; type: biochemical; details: MIA preincubated with 1 μM peptide (FIG. 2B)
T2 construct: made in house; host or cells: cell-free Rapid Translation System RTS 500 E. coli HY Disulfite Kit (Roche)
T2 sequence (Q16674 25-131): T1 sequence (Q16674 25-131)
Method: Protein samples were denaturated at 70° C. for 10 min after addition of reducing and denaturing Roti-Load buffer (Roth, Karlsruhe, Germany) and subsequently separated on sodium dodecyl sulfate 12.75% polyacrylamid gels (SDS-PAGE) (Invitrogen, Groningen, The Netherlands). In the multimerization studies, MIA protein (1 μg) was incubated with AR71 (2.5 μg) overnight at RT before being treated as described above. After transferring the proteins onto a polyvinylidene fluoride (PVDF) membrane (BioRad, Richmond, Va., USA), the membrane was blocked using 3% BSA/PBS for 1 h at RT and incubated with a 1:150 dilution of primary polyclonal rabbit anti MIA antibody (Biogenes, Berlin, Germany) in 3% BSA/PBS overnight at 4° C. After washing in PBS the membrane was incubated with a 1:2000 dilution of an […] coupled secondary antibody (Chemikon, Hofheim, Germany) for 2 h at RT. Finally, after washing steps, immunoreactions were visualized by nitro blue tetrazolium/5-bromo-4-chloro-3-indolyl phosphate (NBT/BCIP) (Invitrogen, Karlsruhe, Germany) staining.

binding of peptide to MIA (chemical shift perturbations) (MIA): MIA binds to this peptide ligand
reduction of MIA dimer bands (MIA protein dimer): strong reduction of the dimer bands
Substance: Ac-FHWRYPLPLPGQ-NH2 [AR71, FHWRYPLPLPGQ]
adverse effects on other organs and tissues ([1]; nine days): no adverse effects on other organs and tissues were observed
average number of metastases in the liver compared to untreated control mice ([1]; nine days (FIG. 4D)): significant reduction of the average number of metastases in the liver
neutralization of the MIA effect on cell invasion (Mel Im melanoma cells; MIA 200 ng/mL pre-incubated with peptide 1 μM, Mel Im cells (FIG. 2C)): complete neutralization of the effect caused by MIA
migratory behaviour of cells treated with peptide alone (Mel Im melanoma cells; peptide in absence of MIA, Mel Im cells): does not influence the migratory behaviour of melanoma cells
